Laboratory results published in patent US20160193216A1 (Nimbus Iris, Inc., priority 2012, published 2016).

biological target: T1, IRAK4 (Homo sapiens, UniProt Q9NWZ3); assay: IRAK-4 activity inhibition assay (Caliper); type: biochemical; details: 37 μM ATP, 3.5 nM IRAK4
T1 sequence (Q9NWZ3 1-460): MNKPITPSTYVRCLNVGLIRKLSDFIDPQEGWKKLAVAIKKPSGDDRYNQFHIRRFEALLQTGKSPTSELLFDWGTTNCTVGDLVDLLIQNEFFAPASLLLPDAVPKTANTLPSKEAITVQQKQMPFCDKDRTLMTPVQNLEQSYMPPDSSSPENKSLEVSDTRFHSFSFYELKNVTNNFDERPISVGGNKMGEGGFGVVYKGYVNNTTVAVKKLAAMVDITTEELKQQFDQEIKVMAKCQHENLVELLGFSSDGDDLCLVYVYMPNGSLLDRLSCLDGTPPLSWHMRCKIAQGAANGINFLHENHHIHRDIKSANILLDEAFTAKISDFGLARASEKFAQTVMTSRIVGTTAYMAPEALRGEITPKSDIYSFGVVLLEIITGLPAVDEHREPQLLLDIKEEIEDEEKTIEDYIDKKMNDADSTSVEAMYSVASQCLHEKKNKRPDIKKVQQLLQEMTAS

| Structure (SMILES) | IC50 [µM] |
| --- | --- |
| CN(C)[C@H]1CC[C@H](Oc2ncnc3sc4c(c23)[C@@H](COCC(N)=O)CC4)CC1 [Compound I-76, 2-[[(3S)-12-[[4-(dimethylamino)cyclohexyl]oxy]-7-thia-9,11-diazatricyclo[6.4.0.0[2,6]]dodeca-1(8),2(6),9,11-tetraen-3-yl]methoxy]acetamide] | < 5 |
| CN[C@H]1CC[C@H](Oc2ncnc3sc4c(c23)[C@@H](C[C@@H](C#N)OC)CC4)CC1 [Compound I-80, (2S)-2-methoxy-3-[(3R)-12-[[4-(methylamino)cyclohexyl]oxy]-7-thia-9,11-diazatricyclo[6.4.0.0[2,6]]dodeca-1(8),2(6),9,11-tetraen-3-yl]propanenitrile] | < 5 |
| CN[C@H]1CC[C@H](Oc2ncnc3sc4c(c23)[C@@H](C[C@H](C#N)OC)CC4)CC1 [Compound I-81, (2R)-2-methoxy-3-[(3R)-12-[[4-(methylamino)cyclohexyl]oxy]-7-thia-9,11-diazatricyclo[6.4.0.0[2,6]]dodeca-1(8),2(6),9,11-tetraen-3-yl]propanenitrile] | 5 to 20 |
| C[C@@H](O)C[C@H]1CCc2sc3ncnc(O[C@H]4CC[C@H](N5CCOCC5)CC4)c3c21 [Compound I-82, (R)-1-((R)-4-(((1r,4R)-4-morpholinocyclohexyl)oxy)-6,7-dihydro-5H-cyclopenta[4,5]thieno[2,3-d]pyrimidin-5-yl)propan-2-ol] | < 5 |
| NC(=O)CC[C@H]1CCc2sc3ncnc(O[C@H]4CC[C@H](N5CCOCC5)CC4)c3c21 [Compound I-84, 3-((S)-4-(((1r,4S)-4-morpholinocyclohexyl)oxy)-6,7-dihydro-5H-cyclopenta[4,5]thieno[2,3-d]pyrimidin-5-yl)propanamide] | < 5 |
| CN(C)[C@H]1CC[C@H](Oc2ncnc3sc4c(c23)[C@@H](C[C@H](O)C2CCCO2)CC4)CC1 (stereo partly drawn) [Compound I-89, (1S)-2-((R)-4-(((1r,4R)-4-(dimethylamino)cyclohexyl)oxy)-6,7-dihydro-5H-cyclopenta[4,5]thieno[2,3-d]pyrimidin-5-yl)-1-(tetrahydrofuran-2-yl)ethanol] | < 5 |
| CC[C@]1(N(C)C)CC[C@H](Oc2ncnc3sc4c(c23)[C@@H](CCO)CC4)CC1 [Compound I-91, 2-((R)-4-(((1r,4R)-4-(dimethylamino)-4-ethylcyclohexyl)oxy)-6,7-dihydro-5H-cyclopenta[4,5]thieno[2,3-d]pyrimidin-5-yl)ethanol] | < 5 |
| CC[C@]1(N(C)C)CC[C@H](Oc2ncnc3sc4c(c23)[C@@H](CC(N)=O)CC4)CC1 [Compound I-95, 2-[(3R)-12-[[4-(dimethylamino)-4-ethylcyclohexyl]oxy]-7-thia-9,11-diazatricyclo[6.4.0.0[2,6]]dodeca-1(8),2(6),9,11-tetraen-3-yl]acetamide] | < 5 |

Results, then the molecule that gave them:

| IC50 [µM] | Structure (SMILES) |
| --- | --- |
| < 5 | CN(C)[C@H]1CC[C@H](Oc2ncnc3sc4c(c23)[C@@H](C[C@H](O)C(N)=O)CC4)CC1 [Compound I-74, (2S)-3-[(3R)-12-[[4-(dimethylamino)cyclohexyl]oxy]-7-thia-9,11-diazatricyclo[6.4.0.0̂[2,6]]dodeca-1(8),2(6),9,11-tetraen-3-yl]-2-hydroxypropanamide] |
| < 5 | CN(C)[C@H]1CC[C@H](Oc2ncnc3sc4c(c23)[C@@H](C[C@@H](O)C(N)=O)CC4)CC1 [Compound I-75, (2R)-3-[(3R)-12-[[4-(dimethylamino)cyclohexyl]oxy]-7-thia-9,11-diazatricyclo[6.4.0.0̂[2,6]]dodeca-1(8),2(6),9,11-tetraen-3-yl]-2-hydroxypropanamide] |
| < 5 | CO[C@@H](C[C@H]1CCc2sc3ncnc(O[C@H]4CC[C@H](N(C)C)CC4)c3c21)C(N)=O [Compound I-78, (2S)-3-[(3R)-12-[[4-(dimethylamino)cyclohexyl]oxy]-7-thia-9,11-diazatricyclo[6.4.0.0[2,6]]dodeca-1(8),2(6),9,11-tetraen-3-yl]-2-methoxypropanamide] |
